target: T1, USP8 (Homo sapiens, UniProt P40818); assay: USP8 activity assay (Ub-AMC substrate); format: biochemical; conditions: Ub-AMC 300 nM, USP8 1.36 nM
T1 construct: His (from pFastBac-HT vector) (N); made in house; host or cells: Sf9 or High Five insect cells, baculovirus
T1 sequence (P40818 1-1118): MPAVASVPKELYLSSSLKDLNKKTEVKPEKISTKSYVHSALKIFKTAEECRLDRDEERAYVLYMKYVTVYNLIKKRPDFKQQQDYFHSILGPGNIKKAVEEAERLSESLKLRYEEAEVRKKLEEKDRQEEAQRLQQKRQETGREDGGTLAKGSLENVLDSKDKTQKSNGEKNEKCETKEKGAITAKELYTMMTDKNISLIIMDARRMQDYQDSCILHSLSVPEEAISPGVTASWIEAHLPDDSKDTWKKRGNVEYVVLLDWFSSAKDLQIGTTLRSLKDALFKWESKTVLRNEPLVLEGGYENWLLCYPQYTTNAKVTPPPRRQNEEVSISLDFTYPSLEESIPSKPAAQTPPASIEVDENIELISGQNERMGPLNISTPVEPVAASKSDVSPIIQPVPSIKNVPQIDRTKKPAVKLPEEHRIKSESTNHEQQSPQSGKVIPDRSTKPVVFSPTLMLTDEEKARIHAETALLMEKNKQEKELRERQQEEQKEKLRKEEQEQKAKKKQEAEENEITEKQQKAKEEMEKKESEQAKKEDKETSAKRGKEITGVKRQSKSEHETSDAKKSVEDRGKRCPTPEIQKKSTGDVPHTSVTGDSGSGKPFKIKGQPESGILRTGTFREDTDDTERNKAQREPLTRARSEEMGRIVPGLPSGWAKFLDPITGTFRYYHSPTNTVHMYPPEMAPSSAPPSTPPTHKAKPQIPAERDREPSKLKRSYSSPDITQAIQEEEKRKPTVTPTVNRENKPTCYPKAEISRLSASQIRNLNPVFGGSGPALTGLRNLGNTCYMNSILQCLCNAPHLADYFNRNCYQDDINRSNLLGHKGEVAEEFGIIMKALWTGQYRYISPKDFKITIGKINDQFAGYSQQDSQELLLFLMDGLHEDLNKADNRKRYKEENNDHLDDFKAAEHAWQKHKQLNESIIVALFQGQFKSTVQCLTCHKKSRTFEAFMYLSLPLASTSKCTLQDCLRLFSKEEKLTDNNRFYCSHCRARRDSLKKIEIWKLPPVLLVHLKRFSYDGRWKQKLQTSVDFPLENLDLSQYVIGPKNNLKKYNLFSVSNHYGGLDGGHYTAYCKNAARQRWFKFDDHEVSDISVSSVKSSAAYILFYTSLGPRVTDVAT
Source text: The cDNA encoding USP8 was obtained by PCR amplification from placenta mRNA. USP8 cDNA was subcloned by PCR into a baculovirus expression vector (pFastBac-HT; Invitrogen). A cDNA encoding a mutated USP8 was generated by mutagenic PCR. The corresponding protein encodes a cysteine to alanine substitution at residue 786. The sequences were ascertained by sequencing of the entire open reading frame. Bacmids encoding USP8 were generated following DH10bac transposition. The corresponding bacmids were transfected into insect cells (Sf9). Viruses were recovered from culture supernatant and amplified twice. Insect cells (Sf9 or High Five; Invitrogen) were infected for 72 hours. Total cell lysates were harvested and lyzed in lysis buffer (Tris HCl 50 mM pH7.6; 0.75% NP40; 500 mM NaCl; 10% glycerol; 1 mM DTT; 10 mM imidazole; Protease Inhibitor Cocktail; AEBSF 20 μg·ml^−1; Aprotinin 10 μg·ml^−1). Proteins were affinity purified on metal affinity resins (Talon Metal affinity resin; BD Biosciences). Bound materials were extensively washed in wash buffer (50 mM Sodium Phosphate pH 7.0; 300 mM NaCl; 10 mM imidazole; 0.5% Triton X-100; 10% glycerol) and eluted from the resin in 250 mM imidazole-containing wash buffer. Proteins were dialyzed in dialysis buffer (Tris HCl pH 7.6 20 mM; NaCl 200 mM; DTT 1 mM; EDTA 1 mM; 10% Glycerol). Proteins purifications were analyzed on 4-12% NuPAGE (Invitrogen).
USP8 was diluted in USP buffer (50 mM Tris HCl; 0.5 mM EDTA; 5 mM DTT; 0.01% Triton X-100; Bovine Serum Albumin 0.05 mg·ml^−1 pH8.8). Compounds stocks (100 mM) were stored at −20° C. in DMSO. Compounds were tested at different concentrations: from 200 μM to 91 nM.
Reactions were performed as duplicates in Black 384 well plates (small volume microplates; Greiner; 10 μl final reaction volume). The substrate concentration for USP8 was 300 nM Ub-AMC (Boston Biochem). The concentration of the enzyme (USP8) in specificity assays was 1.36 nM. The concentrations were determined in order to perform specificity assays under initial velocities at fixed substrate concentration. Compounds were pre-incubated with enzymes for 30 minutes at 25° C. Reactions were initiated by addition of substrate to the plates containing the enzymes (+/− compounds) diluted in assay buffer. Reactions were incubated for 60 minutes at 37° C. Reactions were stopped by adding acetic acid (100 mM final). Readings were performed on a Pherastar Fluorescent Reader (BMG). λ Emission 380 nm: λ Excitation=460 nm. Data (mean values +/− standard deviation) were analyzed as % of control (no compound) and plotted as percentage versus the Log of the compound concentration using GraphPad (Prism). Data were fitted to a sigmoidal model (variable slope).

IC50 [µM] | Compound
> 200 | O=C(NCc1cccc(CN2CCCC2)c1)c1ccc2c(Cl)c3c(nc2c1)CCCC3 [Example 18, 9-chloro-N-(3-(pyrrolidin-1-ylmethyl)benzyl)-5,6,7,8-tetrahydroacridine-3-carboxamide]
> 200 | COc1ccc(CN2CCC(CNC(=O)c3ccc4c(Cl)c5c(nc4c3)CCCC5)CC2)cc1 [Example 22, 9-chloro-N-((1-(4-methoxybenzyl)piperidin-4-yl)methyl)-5,6,7,8-tetrahydroacridine-3-carboxamide]
> 200 | CN1CCCC1CCNC(=O)c1ccc2c(Cl)c3c(nc2c1)CCCC3 (stereo not drawn) [Example 17, 9-chloro-N-(2-(1-methylpyrrolidin-2-yl)ethyl)-5,6,7,8-tetrahydroacridino-3-carboxamide]
> 200 | O=C(NCC(CN1CCCC1)C(O)c1ccccc1)c1ccc2c(Cl)c3c(nc2c1)CCCC3 (stereo not drawn) [Example 25, 9-chloro-N-(3-hydroxy-3-phenyl-2-pyrrolidin-1-ylmethylpropyl)-5,6,7,8-tetrahydroacridine-3-carboxamide]
~200 | O=C(NCC1CCNCC1)c1ccc2c(Cl)c3c(nc2c1)CCCC3 [Example 24, 9-chloro-N-((piperidin-4-yl)methyl)-5,6,7,8-tetrahydroacridine-3-carboxamide]
> 200 | CC1CCCCN1CCCNC(=O)c1ccc2c(Cl)c3c(nc2c1)CCCC3 (stereo not drawn) [Example 20, 9-chloro-N-(3-(2-methylpiperidin-1-yl)propyl)-516,7,8-tetrahydroacridine-3-carboxamide]
> 200 | CN(C)c1ccc(CN2CCC(CNC(=O)c3ccc4c(Cl)c5c(nc4c3)CCCC5)CC2)cc1 [Example 23]
> 200 | O=C(NCc1ccc(CN2CCCC2)cc1)c1ccc2c(Cl)c3c(nc2c1)CCCC3 [Example 21, 9-chloro-N-(4-(pyrrolidin-1-ylmethyl)benzyl)-5,6,7,8-tetrahydroacridine-3-carboxamide]
> 200 | O=C(Nc1cccc(CN2CCCC2)c1)c1ccc2c(Cl)c3c(nc2c1)CCCC3 [Example 19, 9-chloro-N-(3-(pyrrolidin-1-ylmethyl)phenyl)-5.6,7,8-tetrahydroacridine-3-carboxamide]
